# Laboratory results taken from patent US8952024B2, “Herbicidal pyrimidone derivatives” (E I du Pont de Nemours and Company, priority 2009, dated 2015).
# Tests used:
# Test in all cases: Test D pre-/postemergence plant response
# Assay type in all cases: in vivo
# Settings in all cases: Postemergence
# [1] = tested on: Italian ryegrass (Lolium multiflorum)
# Outline: (§1)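 Under greenhouse conditions for 14 to 21 days, plants treated pre- or postemergence with surfactant-formulated compound were compared by eye with untreated controls and scored 0–100 (100 = complete control; dash = no result).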
# [2] = tested on: barnyardgrass (Echinochloa crus-galli)
# Outline: as §1
# [3] = tested on: black mustard (Brassica nigra)
# Outline: as §1
# [4] = tested on: chickweed (common chickweed, Stellaria media)
# Outline: as §1
# [5] = tested on: dallisgrass (Paspalum dilatatum)
# Outline: as §1
# [6] = tested on: dayflower (Virginia (VA) dayflower, Commelina virginica)
# Outline: as §1
# [7] = tested on: field bindweed (Convolvulus arvensis)
# Outline: as §1
# [8] = tested on: green foxtail (Setaria viridis)
# Outline: as §1
# [9] = tested on: groundsel (common groundsel, Senecio vulgaris)
# Outline: as §1
# [10] = tested on: guineagrass (Panicum maximum)
# Outline: as §1
# [11] = tested on: itchgrass (Rottboellia cochinchinensis)
# Outline: as §1
# [12] = tested on: johnsongrass (Sorghum halepense)
# Outline: as §1
# [13] = tested on: mallow (common mallow, Malva sylvestris)
# Outline: as §1
# [14] = tested on: prickly sida (Sida spinosa)
# Outline: as §1
# [15] = tested on: purslane (common purslane, Portulaca oleracea)
# Outline: as §1
# [16] = tested on: quackgrass (Elytrigia repens)
# Outline: as §1
# [17] = tested on: ragweed (common ragweed, Ambrosia elatior)
# Outline: as §1
# [18] = tested on: sandbur (southern sandbur, Cenchrus echinatus)
# Outline: as §1
# [19] = tested on: sowthistle (common sowthistle, Sonchus oleraceous)
# Outline: as §1
# [20] = 62 g ai/ha, scale 0 to 100 (0 no effect, 100 complete control)
# [21] = 125 g ai/ha, scale 0 to 100 (0 no effect, 100 complete control)
# [22] = 250 g ai/ha, scale 0 to 100 (0 no effect, 100 complete control)
# [23] = 31 g ai/ha, scale 0 to 100 (0 no effect, 100 complete control)
structure (smiles),measurement,setting,value
CCCCn1c(-c2cc(F)cc(F)c2)ncc(C(=O)C2=C(O)C3CCC(C3)C2=O)c1=O (stereo not shown) [Compound 245],"Plant response rating, Ryegrass, Italian","[1]; 31 g ai/ha, scale 0 to 100",5
same,"Plant response rating, Ryegrass, Italian",[1]; [20],5
same,"Plant response rating, Ryegrass, Italian",[1]; [21],20
same,"Plant response rating, Ryegrass, Italian",[1]; [22],50
same,"Plant response rating, Barnyardgrass","[2]; 31 g ai/ha, scale 0 to 100",80
same,"Plant response rating, Barnyardgrass",[2]; [20],85
same,"Plant response rating, Barnyardgrass",[2]; [21],85
same,"Plant response rating, Barnyardgrass",[2]; [22],90
same,"Plant response rating, Black Mustard","[3]; 31 g ai/ha, scale 0 to 100",75
same,"Plant response rating, Black Mustard",[3]; [20],95
same,"Plant response rating, Black Mustard",[3]; [21],98
same,"Plant response rating, Black Mustard",[3]; [22],98
same,"Plant response rating, Chickweed","[4]; 31 g ai/ha, scale 0 to 100",5
same,"Plant response rating, Chickweed",[4]; [20],25
same,"Plant response rating, Chickweed",[4]; [21],50
same,"Plant response rating, Chickweed",[4]; [22],50
same,"Plant response rating, Dallisgrass","[5]; 31 g ai/ha, scale 0 to 100",65
same,"Plant response rating, Dallisgrass",[5]; [20],75
same,"Plant response rating, Dallisgrass",[5]; [21],80
same,"Plant response rating, Dallisgrass",[5]; [22],85
same,"Plant response rating, Dayflower, VA","[6]; 31 g ai/ha, scale 0 to 100",20
same,"Plant response rating, Dayflower, VA",[6]; [20],35
same,"Plant response rating, Dayflower, VA",[6]; [21],65
same,"Plant response rating, Dayflower, VA",[6]; [22],75
same,"Plant response rating, Field Bindweed","[7]; 31 g ai/ha, scale 0 to 100",50
same,"Plant response rating, Field Bindweed",[7]; [20],50
same,"Plant response rating, Field Bindweed",[7]; [21],60
same,"Plant response rating, Field Bindweed",[7]; [22],70
same,"Plant response rating, Foxtail, Green","[8]; 31 g ai/ha, scale 0 to 100",85
same,"Plant response rating, Foxtail, Green",[8]; [20],90
same,"Plant response rating, Foxtail, Green",[8]; [21],95
same,"Plant response rating, Foxtail, Green",[8]; [22],95
same,"Plant response rating, Groundsel","[9]; 31 g ai/ha, scale 0 to 100",95
same,"Plant response rating, Groundsel",[9]; [20],100
same,"Plant response rating, Groundsel",[9]; [21],100
same,"Plant response rating, Groundsel",[9]; [22],100
same,"Plant response rating, Guineagrass","[10]; 31 g ai/ha, scale 0 to 100",75
same,"Plant response rating, Guineagrass",[10]; [20],75
same,"Plant response rating, Guineagrass",[10]; [21],75
same,"Plant response rating, Guineagrass",[10]; [22],85
same,"Plant response rating, Itchgrass","[11]; 31 g ai/ha, scale 0 to 100",70
same,"Plant response rating, Itchgrass",[11]; [20],70
same,"Plant response rating, Itchgrass",[11]; [21],75
same,"Plant response rating, Itchgrass",[11]; [22],75
same,"Plant response rating, Johnsongrass","[12]; 31 g ai/ha, scale 0 to 100",70
same,"Plant response rating, Johnsongrass",[12]; [20],75
same,"Plant response rating, Johnsongrass",[12]; [21],75
same,"Plant response rating, Johnsongrass",[12]; [22],75
same,"Plant response rating, Mallow","[13]; 31 g ai/ha, scale 0 to 100",35
same,"Plant response rating, Mallow",[13]; [20],50
same,"Plant response rating, Mallow",[13]; [21],50
same,"Plant response rating, Mallow",[13]; [22],70
same,"Plant response rating, Prickly Sida","[14]; 31 g ai/ha, scale 0 to 100",30
same,"Plant response rating, Prickly Sida",[14]; [20],50
same,"Plant response rating, Prickly Sida",[14]; [21],50
same,"Plant response rating, Prickly Sida",[14]; [22],70
same,"Plant response rating, Purslane","[15]; 31 g ai/ha, scale 0 to 100",0
same,"Plant response rating, Purslane",[15]; [20],5
same,"Plant response rating, Purslane",[15]; [21],30
same,"Plant response rating, Purslane",[15]; [22],30
same,"Plant response rating, Quackgrass","[16]; 31 g ai/ha, scale 0 to 100",20
same,"Plant response rating, Quackgrass",[16]; [20],35
same,"Plant response rating, Quackgrass",[16]; [21],40
same,"Plant response rating, Quackgrass",[16]; [22],65
same,"Plant response rating, Ragweed","[17]; 31 g ai/ha, scale 0 to 100",70
same,"Plant response rating, Ragweed",[17]; [20],75
same,"Plant response rating, Ragweed",[17]; [21],75
same,"Plant response rating, Ragweed",[17]; [22],75
same,"Plant response rating, Sandbur","[18]; 31 g ai/ha, scale 0 to 100",65
same,"Plant response rating, Sandbur",[18]; [20],70
same,"Plant response rating, Sandbur",[18]; [21],75
same,"Plant response rating, Sandbur",[18]; [22],75
same,"Plant response rating, Sowthistle","[19]; 31 g ai/ha, scale 0 to 100",95
same,"Plant response rating, Sowthistle",[19]; [20],95
same,"Plant response rating, Sowthistle",[19]; [21],95
same,"Plant response rating, Sowthistle",[19]; [22],95
COCCCn1c(-c2cccc(F)c2)ncc(C(=O)C2=C(O)C3CCC(C3)C2=O)c1=O (stereo not shown) [Compound 238],"Plant response rating, Ryegrass, Italian","[1]; 31 g ai/ha, scale 0 to 100",5
same,"Plant response rating, Ryegrass, Italian",[1]; [20],5
same,"Plant response rating, Ryegrass, Italian",[1]; [21],5
same,"Plant response rating, Ryegrass, Italian",[1]; [22],5
same,"Plant response rating, Barnyardgrass",[2]; [23],75
same,"Plant response rating, Barnyardgrass",[2]; [20],80
same,"Plant response rating, Barnyardgrass",[2]; [21],85
same,"Plant response rating, Barnyardgrass",[2]; [22],95
same,"Plant response rating, Black Mustard",[3]; [23],80
same,"Plant response rating, Black Mustard",[3]; [20],95
same,"Plant response rating, Black Mustard",[3]; [21],98
same,"Plant response rating, Black Mustard",[3]; [22],98
same,"Plant response rating, Chickweed","[4]; 31 g ai/ha, scale 0 to 100",30
same,"Plant response rating, Chickweed",[4]; [20],35
same,"Plant response rating, Chickweed",[4]; [21],40
same,"Plant response rating, Chickweed",[4]; [22],50
same,"Plant response rating, Dallisgrass","[5]; 31 g ai/ha, scale 0 to 100",10
same,"Plant response rating, Dallisgrass",[5]; [20],65
same,"Plant response rating, Dallisgrass",[5]; [21],70
same,"Plant response rating, Dallisgrass",[5]; [22],75
same,"Plant response rating, Dayflower, VA","[6]; 31 g ai/ha, scale 0 to 100",35
same,"Plant response rating, Dayflower, VA",[6]; [20],65
same,"Plant response rating, Dayflower, VA",[6]; [21],70
same,"Plant response rating, Dayflower, VA",[6]; [22],75
same,"Plant response rating, Field Bindweed","[7]; 31 g ai/ha, scale 0 to 100",35
same,"Plant response rating, Field Bindweed",[7]; [20],50
same,"Plant response rating, Field Bindweed",[7]; [22],50
same,"Plant response rating, Foxtail, Green","[8]; 31 g ai/ha, scale 0 to 100",75
same,"Plant response rating, Foxtail, Green",[8]; [20],80
same,"Plant response rating, Foxtail, Green",[8]; [21],80
same,"Plant response rating, Foxtail, Green",[8]; [22],95
same,"Plant response rating, Groundsel","[9]; 31 g ai/ha, scale 0 to 100",100
same,"Plant response rating, Groundsel",[9]; [20],100
same,"Plant response rating, Groundsel",[9]; [21],100
same,"Plant response rating, Groundsel",[9]; [22],100
same,"Plant response rating, Guineagrass","[10]; 31 g ai/ha, scale 0 to 100",25
same,"Plant response rating, Guineagrass",[10]; [20],50
same,"Plant response rating, Guineagrass",[10]; [21],65
same,"Plant response rating, Guineagrass",[10]; [22],75
same,"Plant response rating, Itchgrass","[11]; 31 g ai/ha, scale 0 to 100",70
same,"Plant response rating, Itchgrass",[11]; [20],70
same,"Plant response rating, Itchgrass",[11]; [21],75
same,"Plant response rating, Itchgrass",[11]; [22],80
same,"Plant response rating, Johnsongrass","[12]; 31 g ai/ha, scale 0 to 100",60
same,"Plant response rating, Johnsongrass",[12]; [20],70
same,"Plant response rating, Johnsongrass",[12]; [21],75
same,"Plant response rating, Johnsongrass",[12]; [22],80
same,"Plant response rating, Mallow","[13]; 31 g ai/ha, scale 0 to 100",25
same,"Plant response rating, Mallow",[13]; [20],35
same,"Plant response rating, Mallow",[13]; [21],50
same,"Plant response rating, Mallow",[13]; [22],60
same,"Plant response rating, Prickly Sida","[14]; 31 g ai/ha, scale 0 to 100",30
same,"Plant response rating, Prickly Sida",[14]; [20],30
same,"Plant response rating, Prickly Sida",[14]; [21],50
same,"Plant response rating, Prickly Sida",[14]; [22],65
same,"Plant response rating, Purslane","[15]; 31 g ai/ha, scale 0 to 100",60
same,"Plant response rating, Purslane",[15]; [20],60
same,"Plant response rating, Purslane",[15]; [21],60
same,"Plant response rating, Purslane",[15]; [22],60
same,"Plant response rating, Quackgrass","[16]; 31 g ai/ha, scale 0 to 100",5
same,"Plant response rating, Quackgrass",[16]; [20],5
same,"Plant response rating, Quackgrass",[16]; [21],30
same,"Plant response rating, Quackgrass",[16]; [22],40
same,"Plant response rating, Ragweed","[17]; 31 g ai/ha, scale 0 to 100",70
same,"Plant response rating, Ragweed",[17]; [20],75
same,"Plant response rating, Ragweed",[17]; [21],75
same,"Plant response rating, Ragweed",[17]; [22],75
same,"Plant response rating, Sandbur","[18]; 31 g ai/ha, scale 0 to 100",50
same,"Plant response rating, Sandbur",[18]; [20],75
same,"Plant response rating, Sandbur",[18]; [21],75
same,"Plant response rating, Sandbur",[18]; [22],85
same,"Plant response rating, Sowthistle","[19]; 31 g ai/ha, scale 0 to 100",95
same,"Plant response rating, Sowthistle",[19]; [20],95
same,"Plant response rating, Sowthistle",[19]; [21],95
same,"Plant response rating, Sowthistle",[19]; [22],95
